In US20240067662A1, “KRAS INHIBITORS” (Bristol-Myers Squibb Company, priority 2022, published 2024):

What follows are molecules tested against GMPPNP-loaded KRAS G12C (Homo sapiens, UniProt P01116, G12C) (assay: KRAS G12C RAF Disruption Assay (HTRF)). Settings: recombinant GMPPNP-loaded KRAS G12C (5 nM), 20 min with compound; GST-RAF1 RBD (9 nM); HTRF signal; read-out: KRASG12C RAF Disruption Assay (IC50).
Format: biochemical
How it was run: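 GMPPNP-loaded KRAS G12C (5 nM) was preincubated with compound for 20 min at room temperature in Tris pH 7.5 buffer with NaCl, MgCl2, DTT and BSA. GST-RAF1 RBD (9 nM) was added for 20 min, then SA-Tb (0.25 nM) for 3 h. IC50 was fitted from the HTRF 520/495 ratio.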

Chain of GMPPNP-loaded KRAS G12C (P01116 1-188 isoform P01116-2 G12C): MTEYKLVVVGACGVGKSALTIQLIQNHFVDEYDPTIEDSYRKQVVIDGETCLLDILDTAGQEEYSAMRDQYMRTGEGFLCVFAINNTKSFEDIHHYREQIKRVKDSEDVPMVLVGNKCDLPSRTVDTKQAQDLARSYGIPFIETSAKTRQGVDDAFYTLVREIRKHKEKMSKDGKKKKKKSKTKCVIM

For C#Cc1cccc2cccc(-c3ncc4c(N5C[C@H](C)N(C(=O)/C(F)=C/c6ccccn6)C[C@H]5C)nc(OC[C@@]56CCCN5C[C@H](F)C6)nc4c3F)c12 [Compound 83, (Z)-1-((2S,5R)-4-(7-(8-ethynylnaphthalen-1-yl)-8-fluoro-2-(((2R, 7aS)-2-fluorotetrahydro-1H-pyrrolizin-7a(5H)-yl)methoxy)pyrido[4,3-d]pyrimidin-4-yl)-2,5-dimethylpiperazin-1-yl)-2-fluoro-3-(pyridin-2-yl)prop-2-en-1-one], which IC50 is on record?
Its IC50 is 2.6 µM.

Which IC50 does the source give for C#Cc1cccc2cccc(-c3ncc4c(N(C)C5CCN(C(=O)/C(F)=C/c6nccs6)CC5)nc(OC[C@@]56CCCN5C[C@H](F)C6)nc4c3F)c12 [Compound 132, (Z)-1-(4-((7-(8-ethynylnaphthalen-1-yl)-8-fluoro-2-(((2R, 7aS)-2-fluorotetrahydro-1H-pyrrolizin-7a(5H)-yl)methoxy)pyrido[4,3-d]pyrimidin-4-yl)(methyl)amino)piperidin-1-yl)-2-fluoro-3-(thiazol-2-yl)prop-2-en-1-one] here?
The IC50 was 16.8 µM.

For C#Cc1cccc2cccc(-c3ncc4c(N5CCCN(C(=O)/C(F)=C/c6ccccn6)CC5)nc(OC[C@@]56CCCN5C[C@H](F)C6)nc4c3F)c12 [Example 77, (Z)-1-(4-(7-(8-ethynylnaphthalen-1-yl)-8-fluoro-2-(((2R, 7aS)-2-fluorotetrahydro-1H-pyrrolizin-7a(5H)-yl)methoxy)pyrido[4,3-d]pyrimidin-4-yl)-1,4-diazepan-1-yl)-2-fluoro-3-(pyridin-2-yl)prop-2-en-1-one], which IC50 is on record?
The IC50 was 0.12 µM.

Which IC50 does the source give for C#Cc1cccc2cccc(-c3ncc4c(N(C)C5CCN(C(=O)/C(F)=C/c6ccccn6)C5C)nc(OC[C@@]56CCCN5C[C@H](F)C6)nc4c3F)c12 (single isomer, unassigned) [Example 74 cis isomer 1] here?
Its IC50 is 1 µM.

Which IC50 does the source give for N#CC[C@H]1CN(c2nc(OC[C@@]34CCCN3C[C@H](F)C4)nc3c(F)c(N4CCOc5cccc(F)c54)ncc23)CCN1C(=O)/C(F)=C/c1ccccn1 [Example 60, 2-((S)-1-((Z)-2-fluoro-3-(pyridin-2-yl)acryloyl)-4-(8-fluoro-7-(5-fluoro-2,3-dihydro-4H-benzo[b][1,4]oxazin-4-yl)-2-(((2R, 7aS)-2-fluorotetrahydro-1H-pyrrolizin-7a(5H)-yl)methoxy)pyrido[4,3-d]pyrimidin-4-yl)piperazin-2-yl)acetonitrile] here?
Its IC50 is 0.18 µM.

Which IC50 does the source give for N#CC[C@H]1CN(c2nc(OC[C@@]34CCCN3C[C@H](F)C4)nc3c(F)c(-c4ccccc4C4CC4)ncc23)CCN1C(=O)/C(F)=C/c1ccccn1 [Compound 79, 2-((2S)-4-(7-(2-cyclopropylphenyl)-8-fluoro-2-(((2R, 7aS)-2-fluorotetrahydro-1H-pyrrolizin-7a(5H)-yl)methoxy)pyrido[4,3-d]pyrimidin-4-yl)-1-((Z)-2-fluoro-3-(pyridin-2-yl)acryloyl)piperazin-2-yl)acetonitrile] here?
Its IC50 is 0.065 µM.

For C#Cc1cccc2cccc(-c3ncc4c(N5CCN(C(=O)/C(F)=C/c6ccccn6)C[C@H]5C)nc(OC[C@@]56CCCN5C[C@H](F)C6)nc4c3F)c12 [Example 75, (Z)-1-((3R)-4-(7-(8-ethynylnaphthalen-1-yl)-8-fluoro-2-(((2R, 7aS)-2-fluorotetrahydro-1H-pyrrolizin-7a(5H)-yl)methoxy)pyrido[4,3-d]pyrimidin-4-yl)-3-methylpiperazin-1-yl)-2-fluoro-3-(pyridin-2-yl)prop-2-en-1-one], which IC50 is on record?
The IC50 was 0.057 µM.

How did the IC50 turn out when C#Cc1cccc2cccc(-c3nc(OC)c4c(N5CCN(C(=O)/C(F)=C/c6nccs6)CC5)nc(OC[C@@]56CCCN5C[C@H](F)C6)nc4c3F)c12 [Compound 110, (Z)-1-(4-(7-(8-ethynylnaphthalen-1-yl)-8-fluoro-2-(((2R, 7aS)-2-fluorotetrahydro-1H-pyrrolizin-7a(5H)-yl)methoxy)-5-methoxypyrido[4,3-d]pyrimidin-4-yl)piperazin-1-yl)-2-fluoro-3-(thiazol-2-yl)prop-2-en-1-one] was run?
Its IC50 is 0.18 µM.

Which IC50 does the source give for N#CC[C@H]1CN(c2nc(OC[C@@]34CCCN3C[C@H](F)C4)nc3c(F)c(-c4cc(O)ccc4C(F)(F)F)ncc23)CCN1C(=O)/C(F)=C/c1nccs1 [Compound 95, 2-((S)-4-(8-fluoro-2-(((2R, 7aS)-2-fluorotetrahydro-1H-pyrrolizin-7a(5H)-yl)methoxy)-7-(5-hydroxy-2-(trifluoromethyl)phenyl)pyrido[4,3-d]pyrimidin-4-yl)-1-((Z)-2-fluoro-3-(thiazol-2-yl)acryloyl)piperazin-2-yl)acetonitrile] here?
Its IC50 is 0.014 µM.

How did the IC50 turn out when C#Cc1ccc(F)c2cccc(-c3ncc4c(N5CCN(C(=O)/C(F)=C/c6ccccn6)CC5)nc(OC[C@@]56CCCN5C[C@H](F)C6)nc4c3F)c12 [Compound 96, (Z)-1-(4-(7-(8-ethynyl-5-fluoronaphthalen-1-yl)-8-fluoro-2-(((2R, 7aS)-2-fluorotetrahydro-1H-pyrrolizin-7a(5H)-yl)methoxy)pyrido[4,3-d]pyrimidin-4-yl)piperazin-1-yl)-2-fluoro-3-(pyridin-2-yl)prop-2-en-1-one] was run?
The IC50 was 0.11 µM.

How did the IC50 turn out when C#Cc1c(F)ccc2cc(O)cc(-c3ncc4c(N5C[C@H]6CC[C@@H](C5)N6C(=O)/C(F)=C/c5nnc(C)s5)nc(OC[C@@]56CCCN5C[C@H](F)C6)nc4c3F)c12 [Compound 14, (Z)-1-((1R, 5S)-3-(7-(8-ethynyl-7-fluoro-3-hydroxynaphthalen-1-yl)-8-fluoro-2-(((2R, 7aS)-2-fluorotetrahydro-1H-pyrrolizin-7a(5H)-yl)methoxy)pyrido[4,3-d]pyrimidin-4-yl)-3,8-diazabicyclo[3.2.1]octan-8-yl)-2-fluoro-3-(5-methyl-1,3,4-thiadiazol-2-yl)prop-2-en-1-one] was run?
Its IC50 is 0.022 µM.

For C#Cc1c(F)ccc2cc(O)cc(-c3ncc4c(N5CCN(C(=O)/C(F)=C/c6ccccn6)CC5)nc(OC[C@@H]5CCCN5CCCn5cc(CNC(=O)CCCC[C@@H]6SC[C@@H]7NC(=O)N[C@@H]76)nn5)nc4c3F)c12 [Compound 112, N-((1-(3-((S)-2-(((7-(8-ethynyl-7-fluoro-3-hydroxynaphthalen-1-yl)-8-fluoro-4-(4-((Z)-2-fluoro-3-(pyridin-2-yl)acryloyl)piperazin-1-yl)pyrido[4,3-d]pyrimidin-2-yl)oxy)methyl)pyrrolidin-1-yl)propyl)-1H-1,2,3-triazol-4-yl)methyl)-5-((3aS,4S,6aR)-2-oxohexahydro-1H-thieno[3,4-d]imidazol-4-yl)pentanamide], which IC50 is on record?
Its IC50 is < 0.002 µM.

How did the IC50 turn out when N#CC[C@H]1CN(c2nc(OC[C@@]34CCCN3C[C@H](F)C4)nc3c(F)c(-c4ccccc4C4CCC4)ncc23)CCN1C(=O)/C(F)=C/c1nccs1 [Compound 82, 2-((2S)-4-(7-(2-cyclobutylphenyl)-8-fluoro-2-(((2R, 7aS)-2-fluorotetrahydro-1H-pyrrolizin-7a(5H)-yl)methoxy)pyrido[4,3-d]pyrimidin-4-yl)-1-((Z)-2-fluoro-3-(thiazol-2-yl)acryloyl)piperazin-2-yl)acetonitrile] was run?
Its IC50 is 0.062 µM.

How did the IC50 turn out when C#Cc1cccc2cccc(-c3ncc4c(N5CCN(C(=O)/C(F)=C/c6nccs6)C[C@@H]5C)nc(OC[C@@]56CCCN5C[C@H](F)C6)nc4c3F)c12 [Example 62, (Z)-1-((S)-4-(7-(8-ethynylnaphthalen-1-yl)-8-fluoro-2-(((2R, 7aS)-2-fluorotetrahydro-1H-pyrrolizin-7a(5H)-yl)methoxy)pyrido[4,3-d]pyrimidin-4-yl)-3-methylpiperazin-1-yl)-2-fluoro-3-(thiazol-2-yl)prop-2-en-1-one] was run?
Its IC50 is 0.3 µM.
